From the kinase profiling compilation of Christmann-Franck et al. (2016)

How the values were obtained:
Experiment in all cases: KINOMEscan competition binding
Conditions in all cases: compound 10.0 µM
AXL (human) = AXL (human) (UniProt P30530)
[1] = target: JAK1 JH2 pseudokinase (human) (UniProt P23458)
TGFBR1 (human) = TGFBR1 (human) (UniProt P36897)
ZAP70 (human) = ZAP70 (human) (UniProt P43403)
STK25 (human) = STK25 (human) (UniProt O00506)
STK32C (human) = STK32C (human) (UniProt Q86UX6)
ABL2 (human) = ABL2 (human) (UniProt P42684)
ULK2 (human) = ULK2 (human) (UniProt Q8IYT8)
RPS6KA2 KD2 (human) = RPS6KA2 KD2 (human) (UniProt Q15349)
IGF1R (human) = IGF1R (human) (UniProt P08069)
FGFR4 (human) = FGFR4 (human) (UniProt P22455)
ACVR1 (human) = ACVR1 (human) (UniProt Q04771)
NEK1 (human) = NEK1 (human) (UniProt Q96PY6)
SRPK3 (human) = SRPK3 (human) (UniProt Q9UPE1)
PLK4 (human) = PLK4 (human) (UniProt O00444)
EPHA7 (human) = EPHA7 (human) (UniProt Q15375)
RPS6KA4 KD1 (human) = RPS6KA4 KD1 (human) (UniProt O75676)
PDPK1 (human) = PDPK1 (human) (UniProt O15530)
ADCK4 (human) = ADCK4 (human) (UniProt Q96D53)
TNK1 (human) = TNK1 (human) (UniProt Q13470)
PRKD3 (human) = PRKD3 (human) (UniProt O94806)
STK3 (human) = STK3 (human) (UniProt Q13188)
CAMK1G (human) = CAMK1G (human) (UniProt Q96NX5)
PRKCD (human) = PRKCD (human) (UniProt Q05655)
PKN1 (human) = PKN1 (human) (UniProt Q16512)
LIMK1 (human) = LIMK1 (human) (UniProt P53667)
TEC (human) = TEC (human) (UniProt P42680)
IKBKB (human) = IKBKB (human) (UniProt O14920)
ITK (human) = ITK (human) (UniProt Q08881)
EPHB4 (human) = EPHB4 (human) (UniProt P54760)
[2] = system: FLT3 (human), P36888 [ITD]
WEE2 (human) = WEE2 (human) (UniProt P0C1S8)
PKMYT1 (human) = PKMYT1 (human) (UniProt Q99640)
AAK1 (human) = AAK1 (human) (UniProt Q2M2I8)
MARK4 (human) = MARK4 (human) (UniProt Q96L34)
HCK (human) = HCK (human) (UniProt P08631)
RIOK3 (human) = RIOK3 (human) (UniProt O14730)
MYO3A (human) = MYO3A (human) (UniProt Q8NEV4)
PKN2 (human) = PKN2 (human) (UniProt Q16513)
PTK2 (human) = PTK2 (human) (UniProt Q05397)

Chain of TNK1 (human) (Q13470 whole entry, looked up): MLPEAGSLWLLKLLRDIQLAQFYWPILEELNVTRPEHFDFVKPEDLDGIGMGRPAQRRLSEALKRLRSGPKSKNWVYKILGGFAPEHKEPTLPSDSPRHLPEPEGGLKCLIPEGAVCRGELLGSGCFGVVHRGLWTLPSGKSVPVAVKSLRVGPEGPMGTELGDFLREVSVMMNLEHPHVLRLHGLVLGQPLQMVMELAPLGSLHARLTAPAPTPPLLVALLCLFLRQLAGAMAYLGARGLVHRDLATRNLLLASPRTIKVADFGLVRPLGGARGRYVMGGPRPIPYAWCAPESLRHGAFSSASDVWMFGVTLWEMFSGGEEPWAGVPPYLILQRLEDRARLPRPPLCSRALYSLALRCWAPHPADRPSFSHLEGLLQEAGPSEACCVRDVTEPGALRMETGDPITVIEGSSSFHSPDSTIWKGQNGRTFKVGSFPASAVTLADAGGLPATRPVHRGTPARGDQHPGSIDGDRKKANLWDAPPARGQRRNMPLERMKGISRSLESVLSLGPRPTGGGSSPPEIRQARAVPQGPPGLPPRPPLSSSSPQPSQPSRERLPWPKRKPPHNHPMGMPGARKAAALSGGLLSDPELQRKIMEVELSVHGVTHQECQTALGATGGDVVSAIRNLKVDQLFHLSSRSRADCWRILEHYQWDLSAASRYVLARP
Chain of PKMYT1 (human) (Q99640 whole entry, looked up): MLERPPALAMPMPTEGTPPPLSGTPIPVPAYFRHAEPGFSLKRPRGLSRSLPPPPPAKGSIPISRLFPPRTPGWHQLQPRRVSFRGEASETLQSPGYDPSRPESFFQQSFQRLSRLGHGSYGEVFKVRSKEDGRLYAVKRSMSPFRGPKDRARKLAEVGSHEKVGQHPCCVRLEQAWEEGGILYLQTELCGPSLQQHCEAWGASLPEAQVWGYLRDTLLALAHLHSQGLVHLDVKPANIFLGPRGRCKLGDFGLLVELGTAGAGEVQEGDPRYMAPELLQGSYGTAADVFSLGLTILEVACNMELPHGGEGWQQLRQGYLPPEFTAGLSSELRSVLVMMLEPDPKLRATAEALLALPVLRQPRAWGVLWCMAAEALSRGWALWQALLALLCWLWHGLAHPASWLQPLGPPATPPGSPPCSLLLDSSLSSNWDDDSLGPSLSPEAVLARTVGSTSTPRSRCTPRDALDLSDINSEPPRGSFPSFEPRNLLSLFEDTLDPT
Chain of RPS6KA2 KD2 (human) (Q15349 whole entry, looked up): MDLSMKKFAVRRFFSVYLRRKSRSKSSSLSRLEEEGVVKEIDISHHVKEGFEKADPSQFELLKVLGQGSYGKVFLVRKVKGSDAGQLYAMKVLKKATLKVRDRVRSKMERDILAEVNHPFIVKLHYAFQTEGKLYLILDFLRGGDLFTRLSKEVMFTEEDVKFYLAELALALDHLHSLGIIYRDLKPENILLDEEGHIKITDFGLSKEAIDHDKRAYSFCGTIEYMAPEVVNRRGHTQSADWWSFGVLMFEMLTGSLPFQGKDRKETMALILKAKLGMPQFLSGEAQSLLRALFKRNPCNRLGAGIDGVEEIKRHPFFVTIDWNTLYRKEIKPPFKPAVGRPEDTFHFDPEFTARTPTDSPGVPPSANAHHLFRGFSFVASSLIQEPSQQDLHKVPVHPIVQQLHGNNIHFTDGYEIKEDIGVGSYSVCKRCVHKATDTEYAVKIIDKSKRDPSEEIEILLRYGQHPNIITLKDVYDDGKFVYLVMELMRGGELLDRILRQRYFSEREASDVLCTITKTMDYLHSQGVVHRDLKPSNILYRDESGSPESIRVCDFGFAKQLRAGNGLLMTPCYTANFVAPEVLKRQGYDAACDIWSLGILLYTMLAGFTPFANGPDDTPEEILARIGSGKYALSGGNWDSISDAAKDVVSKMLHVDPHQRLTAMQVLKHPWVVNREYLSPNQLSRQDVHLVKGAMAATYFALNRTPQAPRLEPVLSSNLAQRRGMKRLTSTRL
Chain of PRKD3 (human) (O94806 whole entry, looked up): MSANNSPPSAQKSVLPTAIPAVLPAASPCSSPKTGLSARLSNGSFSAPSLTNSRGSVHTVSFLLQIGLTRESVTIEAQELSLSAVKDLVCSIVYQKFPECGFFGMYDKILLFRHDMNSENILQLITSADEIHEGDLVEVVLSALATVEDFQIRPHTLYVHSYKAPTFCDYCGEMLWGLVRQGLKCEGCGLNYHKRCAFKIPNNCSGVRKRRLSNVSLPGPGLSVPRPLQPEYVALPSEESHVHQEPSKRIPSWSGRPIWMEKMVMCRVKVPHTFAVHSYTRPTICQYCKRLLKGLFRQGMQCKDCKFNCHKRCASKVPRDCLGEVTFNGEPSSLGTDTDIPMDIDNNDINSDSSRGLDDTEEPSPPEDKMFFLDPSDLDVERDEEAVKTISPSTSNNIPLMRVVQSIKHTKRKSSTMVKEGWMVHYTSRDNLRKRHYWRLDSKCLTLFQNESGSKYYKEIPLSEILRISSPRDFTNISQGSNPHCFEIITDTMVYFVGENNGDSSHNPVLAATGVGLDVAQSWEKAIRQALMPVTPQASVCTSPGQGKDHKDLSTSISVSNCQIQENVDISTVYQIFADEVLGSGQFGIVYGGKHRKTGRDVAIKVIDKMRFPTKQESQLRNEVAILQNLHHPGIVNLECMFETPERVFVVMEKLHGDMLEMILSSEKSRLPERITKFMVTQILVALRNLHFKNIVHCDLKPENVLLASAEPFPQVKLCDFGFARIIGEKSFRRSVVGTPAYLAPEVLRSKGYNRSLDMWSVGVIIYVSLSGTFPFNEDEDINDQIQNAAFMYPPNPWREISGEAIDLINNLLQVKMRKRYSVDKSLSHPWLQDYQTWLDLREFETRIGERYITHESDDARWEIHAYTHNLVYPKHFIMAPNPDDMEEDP
Chain of STK25 (human) (O00506 whole entry, looked up): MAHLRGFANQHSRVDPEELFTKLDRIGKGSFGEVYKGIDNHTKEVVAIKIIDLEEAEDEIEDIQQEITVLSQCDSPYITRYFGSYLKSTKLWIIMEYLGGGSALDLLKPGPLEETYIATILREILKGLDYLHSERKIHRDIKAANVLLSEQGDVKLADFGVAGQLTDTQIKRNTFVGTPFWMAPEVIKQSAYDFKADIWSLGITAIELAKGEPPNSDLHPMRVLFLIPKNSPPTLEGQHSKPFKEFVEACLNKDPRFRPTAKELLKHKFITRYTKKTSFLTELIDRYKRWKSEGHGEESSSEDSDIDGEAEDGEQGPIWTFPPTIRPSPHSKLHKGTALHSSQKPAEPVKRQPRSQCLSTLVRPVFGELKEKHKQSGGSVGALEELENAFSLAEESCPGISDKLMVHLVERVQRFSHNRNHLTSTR
Chain of FGFR4 (human) (P22455 whole entry, looked up): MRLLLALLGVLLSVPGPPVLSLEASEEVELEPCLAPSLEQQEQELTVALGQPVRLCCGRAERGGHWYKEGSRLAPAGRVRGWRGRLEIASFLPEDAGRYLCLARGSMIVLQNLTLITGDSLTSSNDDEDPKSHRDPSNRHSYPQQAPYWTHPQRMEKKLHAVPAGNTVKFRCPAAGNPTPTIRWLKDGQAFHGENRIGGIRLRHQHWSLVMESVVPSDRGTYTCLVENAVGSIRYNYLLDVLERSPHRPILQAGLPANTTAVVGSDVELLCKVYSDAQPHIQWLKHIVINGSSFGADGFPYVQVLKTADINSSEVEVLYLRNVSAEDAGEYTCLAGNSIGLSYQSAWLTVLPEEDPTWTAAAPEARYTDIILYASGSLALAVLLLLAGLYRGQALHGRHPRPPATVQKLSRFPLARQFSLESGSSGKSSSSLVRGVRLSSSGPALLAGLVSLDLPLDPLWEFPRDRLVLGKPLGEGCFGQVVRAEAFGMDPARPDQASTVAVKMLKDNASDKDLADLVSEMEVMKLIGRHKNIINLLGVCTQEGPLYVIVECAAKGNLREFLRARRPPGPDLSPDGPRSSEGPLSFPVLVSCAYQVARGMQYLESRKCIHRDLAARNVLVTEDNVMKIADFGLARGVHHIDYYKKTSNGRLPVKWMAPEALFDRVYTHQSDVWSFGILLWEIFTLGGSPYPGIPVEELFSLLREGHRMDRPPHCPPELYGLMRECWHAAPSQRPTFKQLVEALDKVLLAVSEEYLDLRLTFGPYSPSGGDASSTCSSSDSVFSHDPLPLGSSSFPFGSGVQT
Chain of SRPK3 (human) (Q9UPE1 whole entry, looked up): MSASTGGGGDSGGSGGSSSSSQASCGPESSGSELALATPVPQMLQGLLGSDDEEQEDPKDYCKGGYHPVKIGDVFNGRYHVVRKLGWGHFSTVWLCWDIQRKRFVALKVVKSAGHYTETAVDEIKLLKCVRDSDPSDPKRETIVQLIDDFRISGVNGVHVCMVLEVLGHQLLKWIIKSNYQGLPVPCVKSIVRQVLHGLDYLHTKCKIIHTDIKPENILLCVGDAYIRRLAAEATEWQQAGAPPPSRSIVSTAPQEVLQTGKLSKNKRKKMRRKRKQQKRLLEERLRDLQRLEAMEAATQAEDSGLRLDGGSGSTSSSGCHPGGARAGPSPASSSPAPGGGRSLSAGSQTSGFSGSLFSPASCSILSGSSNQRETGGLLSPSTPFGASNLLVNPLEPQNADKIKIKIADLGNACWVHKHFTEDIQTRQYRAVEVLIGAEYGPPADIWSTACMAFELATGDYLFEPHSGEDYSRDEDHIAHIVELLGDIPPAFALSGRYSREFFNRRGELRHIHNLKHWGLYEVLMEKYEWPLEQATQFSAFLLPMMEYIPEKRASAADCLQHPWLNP

Row | Compound | kinase still bound, per cent of control (AXL (human)) [%] | kinase still bound, per cent of control [1] [%] | kinase still bound, per cent of control (TGFBR1 (human)) [%] | kinase still bound, per cent of control (ZAP70 (human)) [%] | kinase still bound, per cent of control (STK25 (human)) [%] | kinase still bound, per cent of control (STK32C (human)) [%] | kinase still bound, per cent of control (ABL2 (human)) [%] | kinase still bound, per cent of control (ULK2 (human)) [%] | kinase still bound, per cent of control (RPS6KA2 KD2 (human)) [%] | kinase still bound, per cent of control (IGF1R (human)) [%] | kinase still bound, per cent of control (FGFR4 (human)) [%] | kinase still bound, per cent of control (ACVR1 (human)) [%] | kinase still bound, per cent of control (NEK1 (human)) [%] | kinase still bound, per cent of control (SRPK3 (human)) [%] | kinase still bound, per cent of control (PLK4 (human)) [%] | kinase still bound, per cent of control (EPHA7 (human)) [%] | kinase still bound, per cent of control (RPS6KA4 KD1 (human)) [%] | kinase still bound, per cent of control (PDPK1 (human)) [%] | kinase still bound, per cent of control (ADCK4 (human)) [%] | kinase still bound, per cent of control (TNK1 (human)) [%] | also measured
1 | N#Cc1c(NC(=O)c2cccc3ccccc23)sc2c1CCCC2 | 88 | 90 | 100 | 87 | 93 | 97 | 86 | 98 | 79 | 76 | 49 | 64 | 100 | 100 | 82 | 84 | 91 | 81 | 100 | 74 | kinase still bound, per cent of control (PRKD3 (human)): 84%; kinase still bound, per cent of control (STK3 (human)): 91%; kinase still bound, per cent of control (CAMK1G (human)): 90%; kinase still bound, per cent of control (PRKCD (human)): 100%; kinase still bound, per cent of control (PKN1 (human)): 94%; kinase still bound, per cent of control (LIMK1 (human)): 76%; kinase still bound, per cent of control (TEC (human)): 91%; kinase still bound, per cent of control (IKBKB (human)): 72%; kinase still bound, per cent of control (ITK (human)): 89%; kinase still bound, per cent of control (EPHB4 (human)): 100%; kinase still bound, per cent of control [2]: 97%; kinase still bound, per cent of control (WEE2 (human)): 70%; kinase still bound, per cent of control (PKMYT1 (human)): 77%; kinase still bound, per cent of control (AAK1 (human)): 91%; kinase still bound, per cent of control (MARK4 (human)): 97%; kinase still bound, per cent of control (HCK (human)): 92%; kinase still bound, per cent of control (RIOK3 (human)): 100%; kinase still bound, per cent of control (MYO3A (human)): 42%; kinase still bound, per cent of control (PKN2 (human)): 81%; kinase still bound, per cent of control (PTK2 (human)): 91%
2 | O=C(NOC[C@H](O)CO)c1ccc(F)c(F)c1Nc1ccc(I)cc1F | 83 | 100 | 100 | 89 | 91 | 100 | 90 | 97 | 92 | 87 | 54 | 76 | 98 | 100 | 86 | 94 | 86 | 71 | 100 | 68 | kinase still bound, per cent of control (PRKD3 (human)): 70%; kinase still bound, per cent of control (STK3 (human)): 90%; kinase still bound, per cent of control (CAMK1G (human)): 100%; kinase still bound, per cent of control (PRKCD (human)): 100%; kinase still bound, per cent of control (PKN1 (human)): 100%; kinase still bound, per cent of control (LIMK1 (human)): 68%; kinase still bound, per cent of control (TEC (human)): 100%; kinase still bound, per cent of control (IKBKB (human)): 79%; kinase still bound, per cent of control (ITK (human)): 97%; kinase still bound, per cent of control (EPHB4 (human)): 100%; kinase still bound, per cent of control [2]: 100%; kinase still bound, per cent of control (WEE2 (human)): 77%; kinase still bound, per cent of control (PKMYT1 (human)): 80%; kinase still bound, per cent of control (AAK1 (human)): 100%; kinase still bound, per cent of control (MARK4 (human)): 100%; kinase still bound, per cent of control (HCK (human)): 100%; kinase still bound, per cent of control (RIOK3 (human)): 100%; kinase still bound, per cent of control (MYO3A (human)): 47%; kinase still bound, per cent of control (PKN2 (human)): 100%; kinase still bound, per cent of control (PTK2 (human)): 85%
